The target of the series is T1, MMP-13 (Homo sapiens, UniProt P45452).
T1 construct: purchased Reaction Biology Corporation, Malvern, PA, USA (contract assay service)
Nature of the series: MMP-13 in vitro inhibition assay (FRET peptide substrate). Format: biochemical. To be noted: for LE (Ligand Efficiency): 1.4(−logIC50)/N, N = number of non-hydrogen atoms; for LLE (lipophilic ligand efficiency): LLE = pIC50 - clogP; for remaining activity at 10 µM: at 10 μM inhibitor concentration, read-out: % Activity (remaining enzyme activity); for remaining activity at 10 µM / IC50: triplicate; for IC50: 10 concentrations starting at 10 μM. On the procedure:
Consecutively the synthesized compounds were tested for their inhibition activity against MMP-13 in in vitro assays. The values are averaged over triplicate determinations (Table 1).
The substrate used for the determinations was the (5-FAM/QXLTM) FRET peptide. The buffer consisted of 50 mM HEPES at pH 7.5 with 10 mM CaCl2 and 0.01% Brij-35. 0.1 mg/mL BSA was added before use. As a control inhibitor GM6001 was used.

The results in this text go back to article PMC4813177, “Molecular Recognition of the Catalytic Zinc(II) Ion in MMP-13: Structure-Based Evolution of an Allosteric Inhibitor to Dual Binding Mode Inhibitors with Improved Lipophilic Ligand Efficiencies” (International Journal of Molecular Sciences, 2016).

In the case of `O=C(Cc1cccc(OCCCCCO)c1)Nc1ccc2c(c1)C(=O)N(Cc1ccccc1)C2=O` [Compound 2, N-(2-benzyl-1,3-dioxo-2,3-dihydro-1H-isoindol-5-yl)-2-{3-[(5-hydroxypentyl)oxy]phenyl}acetamide], the “LE (Ligand Efficiency)” value is 0.24, the “LLE (lipophilic ligand efficiency)” value was found to be 1.53, the remaining activity at 10 µM amounted to 9.1 ± 0.9% and the IC50 was 0.822 ± 0.21 µM.
The matching figures for `O=C(O)CCCCOc1cccc(CC(=O)Nc2ccc3c(c2)C(=O)N(Cc2ccccc2)C3=O)c1` [Compound 3, 5-(3-{[(2-benzyl-1,3-dioxo-2,3-dihydro-1H-isoindol-5-yl)carbamoyl]methyl}phenoxy)pentanoic acid]: 0.27, 2.46, 2.4 ± 0.1% and 0.134 ± 0.04 µM.
The matching figures for `CS(=O)(=O)NC(=O)CCCCOc1cccc(CC(=O)Nc2ccc3c(c2)C(=O)N(Cc2ccccc2)C3=O)c1` [Compound 4, 5-(3-{[(2-benzyl-1,3-dioxo-2,3-dihydro-1H-isoindol-5-yl)carbamoyl]methyl}phenoxy)-N-methanesulfonylpentanamide]: 0.21, 2.53, 13.8 ± 1.4% and 0.767 ± 0.08 µM.
The matching figures for `CNC(=O)CCCCOc1cccc(CC(=O)Nc2ccc3c(c2)C(=O)N(Cc2ccccc2)C3=O)c1` [Compound 5, 5-(3-{[(2-benzyl-1,3-dioxo-2,3-dihydro-1H-isoindol-5-yl)carbamoyl]methyl}phenoxy)-N-methylpentanamide]: 0.25, 2.45, 6.7 ± 0.5% and 0.328 ± 0.05 µM.
With `O=C(Cc1cccc(OCCCO)c1)Nc1ccc2c(c1)C(=O)N(Cc1ccccc1)C2=O` [Compound 11, N-(2-benzyl-1,3-dioxo-2,3-dihydro-1H-isoindol-5-yl)-2-[3-(3-hydroxypropoxy)phenyl]acetamide], the “LE (Ligand Efficiency)” value is listed as 0.26, the “LLE (lipophilic ligand efficiency)” value is given as 2.55, the remaining activity at 10 µM came to 7.9 ± 0.4% and the IC50 stood at 0.586 ± 0.13 µM.
Consider `O=C(Cc1cccc(OCCCCO)c1)Nc1ccc2c(c1)C(=O)N(Cc1ccccc1)C2=O` [Compound 12, N-(2-benzyl-1,3-dioxo-2,3-dihydro-1H-isoindol-5-yl)-2-[3-(4-hydroxybutoxy)phenyl]acetamide], for which the “LE (Ligand Efficiency)” value is listed as 0.26, the “LLE (lipophilic ligand efficiency)” value is listed as 2.22, the remaining activity at 10 µM came out at 7.6 ± 0.5% and the IC50 worked out at 0.454 ± 0.2 µM.
Regarding `O=C(Cc1cccc(OCCCCCCO)c1)Nc1ccc2c(c1)C(=O)N(Cc1ccccc1)C2=O` [Compound 13, N-(2-benzyl-1,3-dioxo-2,3-dihydro-1H-isoindol-5-yl)-2-{3-[(6-hydroxyhexyl)oxy]phenyl}acetamide], the remaining activity at 10 µM stood at 33 ± 2.9%.
Consider `O=C(O)CCOc1cccc(CC(=O)Nc2ccc3c(c2)C(=O)N(Cc2ccccc2)C3=O)c1` [Compound 14, 3-(3-{[(2-benzyl-1,3-dioxo-2,3-dihydro-1H-isoindol-5-yl)carbamoyl]methyl}phenoxy)propanoic acid], for which the remaining activity at 10 µM amounted to 15.4 ± 0.3%.
For `O=C(O)CCCOc1cccc(CC(=O)Nc2ccc3c(c2)C(=O)N(Cc2ccccc2)C3=O)c1` [Compound 15, 4-(3-{[(2-benzyl-1,3-dioxo-2,3-dihydro-1H-isoindol-5-yl)carbamoyl]methyl}phenoxy)butanoic acid], the “LE (Ligand Efficiency)” value was determined as 0.24, the “LLE (lipophilic ligand efficiency)” value worked out at 2.16, the remaining activity at 10 µM came to 4.6 ± 0.6% and the IC50 is 0.777 ± 0.05 µM.
Take `O=C(O)CCCCCOc1cccc(CC(=O)Nc2ccc3c(c2)C(=O)N(Cc2ccccc2)C3=O)c1` [Compound 16, 6-(3-{[(2-benzyl-1,3-dioxo-2,3-dihydro-1H-isoindol-5-yl)carbamoyl]methyl}phenoxy)hexanoic acid]: the “LE (Ligand Efficiency)” value was 0.25, the “LLE (lipophilic ligand efficiency)” value came to 1.70, the remaining activity at 10 µM was found to be 2.6 ± 0.3% and 0.28 ± 0.04 µM corresponded to half-maximal inhibition (IC50).
For the compound `CS(=O)(=O)NC(=O)CCOc1cccc(CC(=O)Nc2ccc3c(c2)C(=O)N(Cc2ccccc2)C3=O)c1` [Compound 17, 3-(3-{[(2-benzyl-1,3-dioxo-2,3-dihydro-1H-isoindol-5-yl)carbamoyl]methyl}phenoxy)-N-methanesulfonylpropanamide], the remaining activity at 10 µM came to 30.5 ± 0.8%.
As to `CS(=O)(=O)NC(=O)CCCOc1cccc(CC(=O)Nc2ccc3c(c2)C(=O)N(Cc2ccccc2)C3=O)c1` [Compound 18, 4-(3-{[(2-benzyl-1,3-dioxo-2,3-dihydro-1H-isoindol-5-yl)carbamoyl]methyl}phenoxy)-N-methanesulfonylbutanamide], the “LE (Ligand Efficiency)” value was 0.22, the “LLE (lipophilic ligand efficiency)” value is on record as 2.91, the remaining activity at 10 µM was 11.2 ± 0.3% and 0.896 ± 0.06 µM corresponded to half-maximal inhibition (IC50).
